Assay [1] relates to human osteosarcoma cell line SJSA-1. Put plainly: Inhibition of proliferation of human osteosarcoma cell line SJSA-1 (DAPI staining, In Cell Analyzer). As to conditions: for IC50: Homo sapiens, SJSA-1, 72 h, read-out: IC50 (nM), inhibitory activity on proliferation of human osteosarcoma cell line SJSA-1, SJSA-1, incubated 72 h; for inhibitory effect on human osteosarcoma cell line SJSA-1 compared with positive control compound HDM201: labels are Example numbers, the compounds with S-configuration are meant.

Assay [2] has as its target T1, MDM2 (Homo sapiens, UniProt Q00987).
T1 construct: made in house
Description: Inhibition test of MDM2-P53 (GST-MDM2, Biotin-P53, Anti-GST-Tb, SA-XL665). As to conditions: for inhibitory effect on MDM2 compared with positive control compound HDM201: labels are Example numbers, the compounds with S-configuration are meant. The assay is classed as binding. The gist of the method: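 HTRF-type assay using 4 nM GST-MDM2 (final), Biotin-P53, SA-XL665 and anti-GST-Tb in PBS with 0.1% BSA, 5 mM DTT and 1 mM AEBSF. Compounds in 5-fold serial dilutions over twelve points; incubation 90 min at 25° C with shaking before plate-reader read-out.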

From patent US11339171B2, “MDM2 inhibitors” (Gan & Lee Pharmaceuticals, priority 2017, dated 2022) come the findings set out here.

pIC50: −log10 of the molar value.

T1 sequence (Q00987 whole entry): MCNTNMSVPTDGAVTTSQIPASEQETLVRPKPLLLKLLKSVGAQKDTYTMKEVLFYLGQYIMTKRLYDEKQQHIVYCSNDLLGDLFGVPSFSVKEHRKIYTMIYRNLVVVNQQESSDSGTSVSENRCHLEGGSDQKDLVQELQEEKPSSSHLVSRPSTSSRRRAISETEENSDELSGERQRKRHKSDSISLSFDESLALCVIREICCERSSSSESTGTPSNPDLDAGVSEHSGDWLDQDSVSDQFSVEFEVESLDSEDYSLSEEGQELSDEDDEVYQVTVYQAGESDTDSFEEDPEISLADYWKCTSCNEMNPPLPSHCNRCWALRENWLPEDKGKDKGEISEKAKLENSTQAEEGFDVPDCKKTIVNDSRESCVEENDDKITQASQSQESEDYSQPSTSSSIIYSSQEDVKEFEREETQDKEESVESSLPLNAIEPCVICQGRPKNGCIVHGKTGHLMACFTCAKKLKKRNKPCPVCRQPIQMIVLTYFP

A word on the pIC50: it is the negative decadic logarithm of the IC50, by convention in mol/L. Consider `COc1cc(OC)c(-c2nc3c(n2C(C)C)[C@@]2(C(=O)Nc4cc(Cl)ccc42)N(c2cc(Cl)ccc2C)C3=O)cc1C` [Example S-83, (S)-6-chloro-5′-(5-chloro-2-methylphenyl)-2′-(2,4-dimethoxy-5-methylphenyl)-3′-isopropyl-3′H-spiro[dihydroindole-3,4′-pyrrolo[3,4-d]imidazole]-2,6′(5′H)-dione], for which the IC50 in assay [1] was 6.21 nM. Besides, the pIC50 in assay [2] is 8.65.

Consider `COc1ncc(-c2nc3c(n2C(C)C)[C@@]2(C(=O)Nc4cc(Cl)ccc42)N(c2cc(Cl)cnc2C)C3=O)c(OC)n1` [Example S-42, (S)-6-chloro-5′-(5-chloro-2-methylpyridin-3-yl)-2′-(2,4-dimethoxypyrimidin-5-yl)-3′-isopropyl-3′H-spiro[dihydroindole-3,4′-pyrrolo[3,4-d]imidazole]-2,6′(5′H)-dione], for which the IC50 in assay [1] was found to be 5.6 nM. This compound had a pIC50 in assay [2] of 8.82.

As for `CCOc1ncc(-c2nc3c(n2C(C)C)[C@]2(C(=O)Nc4cc(Cl)ccc42)N(c2cc(Cl)ccc2F)C3=O)c(OC)n1` [Example R-97, (R)-6-chloro-5′-(5-chloro-2-fluorophenyl)-2′-(2-ethoxy-4-methoxypyrimidin-5-yl)-3′-isopropyl-3′H-spiro[dihydroindole-3,4′-pyrrolo[3,4-d]imidazole]-2,6′(5′H)-dione], the IC50 in assay [1] stood at 396 nM. Further, in assay [2], the pIC50 was 8.24.

`COc1cc(C)ncc1-c1nc2c(n1C(C)C)C1(C(=O)Nc3cc(Cl)ccc31)N(c1cc(Cl)ccc1C)C2=O` (stereo not shown) [Example 154, 6-chloro-5′-(5-chloro-2-methylphenyl)-3′-isopropyl-2′-(4-methoxy-6-methylpyridin-3-yl)-3′H-spiro[dihydroindole-3,4′-pyrrolo[3,4-d]imidazole]-2,6′(5′H)-dione]: in assay [1], the “inhibitory effect on human osteosarcoma cell line SJSA-1 compared with positive control compound HDM201” value is reported as “better”. Further, in assay [2], the “inhibitory effect on MDM2 compared with positive control compound HDM201” value is given as “better”.

With `COc1ccc(C)cc1-c1nc2c(n1C(C)C)[C@]1(C(=O)Nc3cc(Cl)ccc31)N(c1cc(Cl)ccc1C)C2=O` [Example R-62, (R)-6-chloro-5′-(5-chloro-2-methylphenyl)-3′-isopropyl-2′-(2-methoxy-5-methylphenyl)-3′H-spiro[dihydroindole-3,4′-pyrrolo[3,4-d]imidazole]-2,6′(5′H)-dione], the IC50 in assay [1] came to 4360 nM. Further, the pIC50 in assay [2] is 6.60.

In the case of `CCOc1ccc(-c2nc3c(n2C(C)C)[C@@]2(C(=O)Nc4cc(Cl)ccc42)N(c2cc(Cl)ccc2F)C3=O)c(OC)c1` [Example S-94, (S)-6-chloro-5′-(5-chloro-2-fluorophenyl)-2′-(4-ethoxy-2-methoxyphenyl)-3′-isopropyl-3′H-spiro[dihydroindole-3,4′-pyrrolo[3,4-d]imidazole]-2,6′(5′H)-dione], the IC50 in assay [1] worked out at 309 nM. This compound also showed a negative logarithm of the IC50 (pIC50) in assay [2] of 8.33.

Turning to `COc1cccc(F)c1-c1nc2c(n1C(C)C)[C@]1(C(=O)Nc3cc(Cl)ccc31)N(c1cc(Cl)ccc1C)C2=O` [Example R-57, (R)-6-chloro-5′-(5-chloro-2-methylphenyl)-2′-(2-fluoro-6-methoxyphenyl)-3′-isopropyl-3′H-spiro[dihydroindole-3,4′-pyrrolo[3,4-d]imidazole]-2,6′(5′H)-dione], the IC50 in assay [1] worked out at 3960 nM. In assay [2], this compound showed a pIC50 of 6.37.

As to `COc1cc(C(C)C)ncc1-c1nc2c(n1C(C)C)C1(C(=O)Nc3cc(Cl)ccc31)N(c1cc(Cl)cnc1C)C2=O` (stereo not shown) [Example 166, 6-chloro-5′-(5-chloro-2-methylpyridin-3-yl)-3′-isopropyl-2′-(6-isopropyl-4-methoxypyridin-3-yl)-3′H-spiro[dihydroindole-3,4′-pyrrolo[3,4-d]imidazole]-2,6′(5′H)-dione], in assay [1], the “inhibitory effect on human osteosarcoma cell line SJSA-1 compared with positive control compound HDM201” value is given as “better”. Moreover, in assay [2], the “inhibitory effect on MDM2 compared with positive control compound HDM201” value was “better”.

For `COc1cc(OC2CC2)ncc1-c1nc2c(n1C(C)C)C1(C(=O)Nc3cc(Cl)ccc31)N(c1cc(Cl)ccc1C)C2=O` (stereo not shown) [Example 110, 6-chloro-5′-(5-chloro-2-methylphenyl)-2′-(6-cyclopropoxy-4-methoxypyridin-3-yl)-3′-isopropyl-3′H-spiro[dihydroindole-3,4′-pyrrolo[3,4-d]imidazole]-2,6′(5′H)-dione], in assay [1], the “inhibitory effect on human osteosarcoma cell line SJSA-1 compared with positive control compound HDM201” value is “better”. For the same compound, the “inhibitory effect on MDM2 compared with positive control compound HDM201” value in assay [2] is “better”.

`COc1cc(N)ccc1-c1nc2c(n1C(C)C)[C@@]1(C(=O)Nc3cc(Cl)ccc31)N(c1cc(Cl)ccc1F)C2=O` [Example S-66, (S)-2′-(4-amino-2-methoxyphenyl)-6-chloro-5′-(5-chloro-2-fluorophenyl)-3′-isopropyl-3′H-spiro[dihydroindole-3,4′-pyrrolo[3,4-d]imidazole]-2,6′(5′H)-dione]: in assay [1], the IC50 was 39.6 nM. The same compound gave a pIC50 in assay [2] of 8.82.

For the compound `CCN(C)c1ccc(-c2nc3c(n2C(C)C)[C@@]2(C(=O)Nc4cc(Cl)ccc42)N(c2cc(Cl)ccc2C)C3=O)c(OC)c1` [Example S-99, (S)-6-chloro-5′-(5-chloro-2-methylphenyl)-2′-(4-(ethyl(methyl)amino)-2-methoxyphenyl)-3′-isopropyl-3′H-spiro[dihydroindole-3,4′-pyrrolo[3,4-d]imidazole]-2,6′(5′H)-dione], in assay [1], the IC50 worked out at 34.2 nM. For the same compound, the pIC50 in assay [2] was 8.59.

As for `COc1cc(N)c(F)cc1-c1nc2c(n1C(C)C)C1(C(=O)Nc3cc(Cl)ccc31)N(c1cc(Cl)ccc1C)C2=O` (stereo not shown) [Example 75, 2′-(4-amino-5-fluoro-2-methoxyphenyl)-6-chloro-5′-(5-chloro-2-methylphenyl)-3′-isopropyl-3′H-spiro[dihydroindole-3,4′-pyrrolo[3,4-d]imidazole]-2,6′(5′H)-dione], in assay [1], the “inhibitory effect on human osteosarcoma cell line SJSA-1 compared with positive control compound HDM201” value was “better”. Further, the “inhibitory effect on MDM2 compared with positive control compound HDM201” value in assay [2] is “better”.

`COc1nc(OC(C)C)ncc1-c1nc2c(n1C(C)C)[C@@]1(C(=O)Nc3cc(Cl)ccc31)N(c1cc(Cl)cnc1C)C2=O` [Example S-136, (S)-6-chloro-5′-(5-chloro-2-methylpyridin-3-yl)-2′-(2-isopropoxy-4-methoxypyrimidin-5-yl)-3′-isopropyl-3′H-spiro[dihydroindole-3,4′-pyrrolo[3,4-d]imidazole]-2,6′(5′H)-dione]: the IC50 in assay [1] is 108 nM. In assay [2], this compound gave a negative logarithm of the IC50 (pIC50) of 8.63.

Take `COc1ncc(-c2nc3c(n2C(C)C)[C@@]2(C(=O)Nc4cc(Cl)ccc42)N(c2cc(C)cc(Cl)c2)C3=O)c(OC)n1` [Example S-51, (S)-6-chloro-5′-(3-chloro-5-methylphenyl)-2′-(2,4-dimethoxypyrimidin-5-yl)-3′-isopropyl-3′H-spiro[dihydroindole-3,4′-pyrrolo[3,4-d]imidazole]-2,6′(5′H)-dione]: the IC50 in assay [1] was 62.6 nM. Moreover, the pIC50 in assay [2] was 8.36.

On to `CNC(=O)c1ccc(-c2nc3c(n2C(C)C)[C@@]2(C(=O)Nc4cc(Cl)ccc42)N(c2cc(Cl)ccc2C)C3=O)c(OC)c1` [Example S-54, (S)-4-(6-chloro-5′-(5-chloro-2-methylphenyl)-3′-isopropyl-2,6′-dioxo-5′,6′-dihydro-3′H-spiro[dihydroindole-3,4′-pyrrolo[3,4-d]imidazole]-2′-yl)-3-methoxy-N-methylbenzamide], for which, in assay [1], the IC50 stood at 468 nM. This compound gave a negative-log IC50 (pIC50) in assay [2] of 8.65.

Regarding `COc1cc(OC(C)C)ncc1-c1nc2c(n1C(C)C)[C@@]1(C(=O)Nc3cc(Cl)ccc31)N(c1cccc(Cl)c1)C2=O` [Example S-95, (S)-6-chloro-5′-(3-chlorophenyl)-2′-(6-isopropoxy-4-methoxypyridin-3-yl)-3′-isopropyl-3′H-spiro[dihydroindole-3,4′-pyrrolo[3,4-d]imidazole]-2,6′(5′H)-dione], the IC50 in assay [1] came to 49.5 nM. Also, the negative logarithm of the IC50 (pIC50) in assay [2] was 8.72.

Consider `COc1cc(OC)c(-c2nc3c(n2C(C)C)C2(C(=O)Nc4cc(Cl)ccc42)N(c2cc(Cl)ccc2C)C3=O)cc1F` (stereo not shown) [Example 92, 6-chloro-5′-(5-chloro-2-methylphenyl)-2′-(5-fluoro-2,4-dimethoxyphenyl)-3′-isopropyl-3′H-spiro[dihydroindole-3,4′-pyrrolo[3,4-d]imidazole]-2,6′(5′H)-dione], for which the “inhibitory effect on human osteosarcoma cell line SJSA-1 compared with positive control compound HDM201” value in assay [1] is “better”. Also, the “inhibitory effect on MDM2 compared with positive control compound HDM201” value in assay [2] was “better”.

With `COc1cc(C2CC2)ncc1-c1nc2c(n1C(C)C)C1(C(=O)Nc3cc(Cl)ccc31)N(c1cc(Cl)ccc1C)C2=O` (stereo not shown) [Example 103, 6-chloro-5′-(5-chloro-2-methylphenyl)-2′-(6-cyclopropyl-4-methoxypyridin-3-yl)-3′-isopropyl-3′H-spiro[dihydroindole-3,4′-pyrrolo[3,4-d]imidazole]-2,6′(5′H)-dione], the “inhibitory effect on human osteosarcoma cell line SJSA-1 compared with positive control compound HDM201” value in assay [1] is “better”. Moreover, in assay [2], the “inhibitory effect on MDM2 compared with positive control compound HDM201” value is recorded as “better”.

On to `COc1ncc(-c2nc3c(n2C2CC2)[C@@]2(C(=O)Nc4cc(Cl)ccc42)N(c2cc(Cl)ccc2C)C3=O)c(OC)n1` [Example S-28, (S)-6-chloro-5′-(5-chloro-2-methylphenyl)-3′-cyclopropane-2′-(2,4-dimethoxypyrimidin-5-yl)-3′H-spiro[dihydroindole-3,4′-pyrrolo[3,4-d]imidazole]-2,6′(5′H)-dione], for which, in assay [1], the IC50 worked out at 1290 nM. The negative-log IC50 (pIC50) in assay [2] was 7.27.

Take `COc1cc(N(C)C)ccc1-c1nc2c(n1C(C)C)[C@]1(C(=O)Nc3cc(Cl)ccc31)N(c1cc(Cl)ccc1F)C2=O` [Example R-81, (R)-6-chloro-5′-(5-chloro-2-fluorophenyl)-2′-(4-(dimethylamino)-2-methoxyphenyl)-3′-isopropyl-3′H-spiro[dihydroindole-3,4′-pyrrolo[3,4-d]imidazole]-2,6′(5′H)-dione]: in assay [1], the IC50 came out at 1600 nM. The same compound had a pIC50 in assay [2] of 7.27.
